# What was measured:
# pcb-00197 = test system: pcb-00197 (human undifferentiated pleomorphic sarcoma culture)
# Description: (§1)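 60-agent targeted drug screens (Drug Screen V3 on epithelioid sarcoma cultures PCB490-3/4/5, PCB495, EPS cell lines ESX, VA-ES-BJ, FU-EPS-1 and SkMc myoblasts; PPTI screen v2.1 on human UPS PCB197 and canine UPS S1-12). 384-well plates, 72 h, CellTiter-Glo viability; IC50 by Hill curve fit. 10000 nM = no IC50 achieved (top reported value).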
# s1-12 = test system: s1-12 (canine undifferentiated pleomorphic sarcoma culture)
# Description: as §1
SMILES,IC50 cell viability (pcb-00197) [nM],IC50 cell viability (s1-12) [nM]
CNC(=O)c1cc(Oc2ccc(NC(=O)Nc3ccc(Cl)c(C(F)(F)F)c3)cc2)ccn1 [sorafenib],> 10000,6430
COc1cc2nccc(Oc3ccc(NC(=O)C4(C(=O)Nc5ccc(F)cc5)CC4)cc3)c2cc1OC [Cabozantinib],> 10000,> 10000
C[C@@H](Oc1cc(-c2cnn(C3CCNCC3)c2)cnc1N)c1c(Cl)ccc(F)c1Cl [crizotinib],1530,1180
COc1cc2/c(=N/c3ccc(Br)cc3F)nc[nH]c2cc1OCC1CCN(C)CC1 [Vandetanib],1320,1240
Cc1cn(-c2cc(NC(=O)c3ccc(C)c(Nc4nccc(-c5cccnc5)n4)c3)cc(C(F)(F)F)c2)cn1 [Nilotinib],> 10000,> 10000
COC1=CC(c2cc3ccccc3[nH]2)=N/C1=C\c1[nH]c(C)cc1C [obatoclax],210,40
CS(=O)(=O)c1ccc(C(=O)Nc2ccc(Cl)c(-c3ccccn3)c2)c(Cl)c1 [vismodegib],> 10000,2750
Nc1cccc2c1CN(C1CCC(=O)NC1=O)C2=O (centres undefined) [Lenalidomide],> 10000,2850
CS(=O)(=O)CCNCc1ccc(-c2ccc3ncnc(Nc4ccc(OCc5cccc(F)c5)c(Cl)c4)c3c2)o1 [lapatinib],> 10000,> 10000
Cn1cc(C2=C(c3cn(C4CCN(Cc5ccccn5)CC4)c4ccccc34)C(=O)NC2=O)c2ccccc21 [enzastaurin],> 10000,> 10000
Cc1nc(Nc2ncc(C(=O)Nc3c(C)cccc3Cl)s2)cc(N2CCN(CCO)CC2)n1 [dasatinib],140,860
N#CC[C@H](C1CCCC1)n1cc(-c2ncnc3[nH]ccc23)cn1 [ruxolitinib],> 10000,6930
CN1CC[C@H](c2c(O)cc(O)c3c(=O)cc(-c4ccccc4Cl)oc23)[C@H](O)C1 [Alvocidib],260,10
CC(C)C[C@H](NC(=O)[C@H](CCc1ccccc1)NC(=O)CN1CCOCC1)C(=O)N[C@@H](Cc1ccccc1)C(=O)N[C@@H](CC(C)C)C(=O)[C@@]1(C)CO1 [carfilzomib],470,990
Cc1ccc(C(=O)Nc2ccc(CN3CCN(C)CC3)c(C(F)(F)F)c2)cc1C#Cc1cnc2cccnn12 [ponatinib],4430,160
Oc1c2ccccc2c2c3c(cccc13)N=N2,> 10000,1360
CN(C)CC[C@H](CSc1ccccc1)Nc1ccc(S(=O)(=O)NC(=O)c2ccc(N3CCN(Cc4ccccc4-c4ccc(Cl)cc4)CC3)cc2)cc1[N+](=O)[O-] [ABT 737],> 10000,1060
NC1(c2ccc(-c3nc4ccn5c(=O)[nH]nc5c4cc3-c3ccccc3)cc2)CCC1 [MK-2206],> 10000,1090
Cn1c(=O)n(-c2ccc(C(C)(C)C#N)cc2)c2c3cc(-c4cnc5ccccc5c4)ccc3ncc21 [BEZ 235],570,220
CCOc1cc2ncc(C#N)c(Nc3ccc(F)c(Cl)c3)c2cc1NC(=O)/C=C/CN(C)C [pelitinib],> 10000,200
Cc1cc(Nc2cc(N3CCN(C)CC3)nc(Sc3ccc(NC(=O)C4CC4)cc3)n2)n[nH]1 [tozasertib],> 10000,> 10000

SMILES,IC50 cell viability (pcb-00197) [nM],IC50 cell viability (s1-12) [nM]
N#Cc1ccc(COC[C@H]2O[C@@H](n3c(NCc4ccc(Cl)c(Cl)c4)nc4c(N)ncnc43)[C@H](O)[C@@H]2O)cc1,> 10000,> 10000
CC(C)(C)c1cnc(CSc2cnc(NC(=O)C3CCNCC3)s2)o1 [SNS-032],780,110
CC1=C(/C=C/C(C)=C/C=C/C(C)=C/C(=O)O)C(C)(C)CCC1 [retinoic acid],> 10000,2040
CCCS(=O)(=O)Nc1ccc(F)c(C(=O)c2c[nH]c3ncc(-c4ccc(Cl)cc4)cc23)c1F [vemurafenib],> 10000,> 10000
Cc1[nH]c2ccccc2c1CCNCc1ccc(/C=C/C(=O)NO)cc1 [panobinostat],1050,100
COc1cc(Nc2ncc3c(n2)-c2ccc(Cl)cc2C(c2c(F)cccc2OC)=NC3)ccc1C(=O)O [MLN8237],2740,980
CC(C)C[C@H](NC(=O)[C@H](Cc1ccccc1)NC(=O)c1cnccn1)B(O)O [bortezomib],4830,4690
CO[C@H]1C[C@@H]2CC[C@@H](C)[C@@](O)(O2)C(=O)C(=O)N2CCCC[C@H]2C(=O)O[C@H]([C@H](C)C[C@@H]2CC[C@@H](OC(=O)C(C)(CO)CO)[C@H](OC)C2)CC(=O)[C@H](C)/C=C(\C)[C@@H](O)[C@@H](OC)C(=O)[C@H](C)C[C@H](C)/C=C/C=C/C=C/1C [temsirolimus],> 10000,> 10000
C=C1C[C@@H]2CC[C@@]34C[C@H]5O[C@H]6[C@@H](O3)[C@H]3O[C@H](CC[C@@H]3O[C@H]6[C@H]5O4)CC(=O)C[C@@H]3[C@@H](OC)[C@@H](C[C@H](O)CN)O[C@H]3C[C@H]3O[C@@H](CC[C@@H]1O2)C[C@@H](C)C3=C [Eribulin],10,1310
CN(c1ncccc1CNc1nc(Nc2ccc3c(c2)CC(=O)N3)ncc1C(F)(F)F)S(C)(=O)=O,4560,1420
CN(C)c1ccccc1CN1CCCN(Cc2ccccc2N(C)C)C1c1ccncc1 [GANT61],> 10000,> 10000
COc1nc(C)cnc1NS(=O)(=O)c1cccnc1-c1ccc(-c2nnco2)cc1 [zibotentan],> 10000,> 10000
CCN(CC)CCCC(C)Nc1c2ccc(Cl)cc2nc2ccc(OC)cc12 (centres undefined) [quinacrine],1570,990
CC/C(=C(\c1ccccc1)c1ccc(OCCN(C)C)cc1)c1ccccc1 [Tamoxifen],> 10000,> 10000
CN1CCN(CCOc2cc(OC3CCOCC3)c3c(Nc4c(Cl)ccc5c4OCO5)ncnc3c2)CC1 [Saracatinib],> 10000,1510
COc1cc2c(Oc3ccc4[nH]c(C)cc4c3F)ncnc2cc1OCCCN1CCCC1 [cediranib],> 10000,> 10000
COc1cc(Nc2ncc(F)c(Nc3ccc4c(n3)N(COP(=O)(O)O)C(=O)C(C)(C)O4)n2)cc(OC)c1OC [Fostamatinib],4330,730
CNC(=O)CN1CCC(Oc2cc3c(Nc4cccc(Cl)c4F)ncnc3cc2OC)CC1 [AZD-8931],> 10000,> 10000
CCNC(=O)c1noc(-c2cc(C(C)C)c(O)cc2O)c1-c1ccc(CN2CCOCC2)cc1 [AUY922],400,30
CCCC(=O)[O-].[Na+] [sodium butyrate],> 10000,1570
CC1=C(/C=C/C(C)=C/C=C/C(C)=C/C(=O)Nc2ccc(O)cc2)C(C)(C)CCC1 [Fenretinide],> 10000,1840
